In patent US7446195B2, “High affinity thiophene-based and furan-based kinase ligands” (Schering Corporation, priority 2005, dated 2008):

What follows are compounds tested against CDK-2 (Homo sapiens, UniProt P24941) (assay: CDK-2 inhibition (Table 1; fluorescence polarization displacement assay)). Conditions: inhibitory effectiveness toward CDK-2.
Type: binding
Description: The affinity of lead inhibitors binding to CDK-2 and CDK-2/cyclin A were determined by measuring a Ki value using a fluorescence polarization displacement assay. The deacetylated form of compound BMS-250595 was reacted with Alexa Fluor 647 to generate a compound (BMS-Alexa Fluor647) that bound to both proteins and provided a signal for fluorescence polarization displacement. Binding assays were performed in a 384 well Costar NBS coated plate. A total volume of […] contained concentrations of CDK-2 or CDK-2/cyclin A at […], respectively. The concentration of BMS-Alexa Fluor647 was 50 nM. Serial dilutions of compounds were added to 12 wells. The final buffer concentration was 10 mM Hepes, pH 7.5, 150 mM NaCl, and 1 mM DTT. Samples were incubated at room temperature for 15 minutes and then read in an Analyst HT instrument using an excitation and emission wavelength of 580 and 680 nm, respectively. The […] curve fitting tool described by Zhang et al., 2004 (Zhang R., Mayhood T., Lipari P., Wang Y., Durkin D., Syto R., Gesell J., McNemar C., and Windsor W., Analytical Biochemistry 331 (2004) 138-146)

Compound	IC50
C[C@@H](NC(=O)c1ccc(C(=O)Nc2ccc(-n3cncn3)cc2)s1)C1CCCCC1 [Compound 112]	≥ 40 µM
O=C(Nc1ccc(-n2cncn2)cc1)c1ccc(C(=O)N2CCCC(c3ccccc3)C2)s1 (stereo not shown) [Compound 116]	≥ 40 µM
O=C(Nc1ccc(-n2cncn2)cc1)c1ccc(C(=O)N2CCN(c3ccccc3)CC2)s1 [Compound 117]	≥ 40 µM
COc1ccc(NC(=O)c2ccc(C(=O)Nc3ccc(N4CCOCC4)cc3)s2)c(C)c1 [Compound 120]	≥ 40 µM
COc1ccc(NC(=O)c2ccc(C(=O)Nc3ccc(N4CCCCC4)cc3)s2)c(C)c1 [Compound 121]	≥ 40 µM
COc1ccc(NC(=O)c2ccc(C(=O)Nc3ccc(N4CCNCC4)cc3)s2)c(C)c1 [Compound 122]	≥ 40 µM
COc1ccc(NC(=O)c2ccc(C(=O)Nc3ccc(N4CCN(C)CC4)cc3)s2)c(C)c1 [Compound 123]	≥ 40 µM
COc1ccc(NC(=O)c2ccc(C(=O)Nc3ccc(N(C)C)cc3)s2)c(C)c1 [Compound 124]	≥ 40 µM
COc1ccc(NC(=O)c2ccc(C(=O)Nc3ccc(OCCN(C)C)cc3)s2)c(C)c1 [Compound 125]	≥ 40 µM
COC(=O)c1ccc(NC(=O)c2ccc(C(=O)Nc3ccc(OC)cc3C)s2)cc1 [Compound 126]	≥ 40 µM
COc1ccc(NC(=O)c2ccc(C(=O)Nc3ccc(-c4csnn4)cc3)s2)c(C)c1 [Compound 127]	≥ 40 µM
COc1ccc(NC(=O)c2ccc(C(=O)Nc3ccc(-n4cccn4)cc3)s2)c(C)c1 [Compound 129]	≥ 40 µM
COc1ccc(NC(=O)c2ccc(C(=O)Nc3ccc4c(c3)OCO4)s2)c(C)c1 [Compound 130]	≥ 40 µM
COc1ccc(NC(=O)c2ccc(C(=O)Nc3ccc(CN)cc3)s2)c(C)c1 [Compound 132]	≥ 40 µM
COc1ccc(NC(=O)c2ccc(C(=O)Nc3ccc(N4CCOCC4)nc3)s2)c(C)c1 [Compound 133]	≥ 40 µM
O=C(Nc1ccc(-n2cncn2)cc1)c1ccc(C(=O)N[C@@H]2CCNC2)s1 [Compound 136]	≥ 40 µM
CN1CCN(C(=O)c2ccc(C(=O)Nc3ccc(-n4cncn4)cc3)s2)CC1 [Compound 137]	≥ 40 µM
O=C(NC[C@@H]1CCNC1)c1ccc(C(=O)Nc2ccc(-n3cncn3)cc2)s1 [Compound 138]	≥ 40 µM
O=C(Nc1ccc(-n2cncn2)cc1)c1ccc(C(=O)NC2CCNCC2)s1 [Compound 139]	≥ 40 µM
CN(C)CCCNC(=O)c1ccc(C(=O)Nc2ccc(-n3cncn3)cc2)s1 [Compound 140]	≥ 40 µM
CN1CCC(NC(=O)c2ccc(C(=O)Nc3ccc(-n4cncn4)cc3)s2)CC1 [Compound 141]	≥ 40 µM
O=C(NCCN1CCCCC1)c1ccc(C(=O)Nc2ccc(-n3cncn3)cc2)s1 [Compound 144]	≥ 40 µM
CN1CCCC1CCNC(=O)c1ccc(C(=O)Nc2ccc(-n3cncn3)cc2)s1 (stereo not shown) [Compound 145]	≥ 40 µM
O=C(NCCN1CCNC1=O)c1ccc(C(=O)Nc2ccc(-n3cncn3)cc2)s1 [Compound 146]	≥ 40 µM
O=C(NCCN1CCOCC1)c1ccc(C(=O)Nc2ccc(-n3cncn3)cc2)s1 [Compound 147]	≥ 40 µM
O=C(Nc1ccc(-n2cncn2)cc1)c1ccc(C(=O)N2CCN(C3CCCC3)CC2)s1 [Compound 152]	≥ 40 µM
CC(C)[C@@H](CO)NC(=O)c1ccc(C(=O)Nc2ccc(-n3cncn3)cc2)s1 [Compound 153]	≥ 40 µM

Next, values leading:

IC50	Compound
≥ 40 µM	Cc1cc(C)nc(NC(=O)c2ccc(C(=O)Nc3ccc(-n4cncn4)cc3)s2)c1 [Compound 109]
≥ 40 µM	COc1ccccc1NC(=O)c1ccc(C(=O)Nc2ccc(-n3cncn3)cc2)s1 [Compound 110]
≥ 40 µM	Cc1cnc(CNC(=O)c2ccc(C(=O)Nc3ccc(-n4cncn4)cc3)s2)cn1 [Compound 111]
≥ 40 µM	O=C(Nc1ccc(-n2cncn2)cc1)c1ccc(C(=O)N[C@@H]2CCc3ccccc32)s1 [Compound 113]
≥ 40 µM	O=C(Nc1ccc(-n2cncn2)cc1)c1ccc(C(=O)NC2Cc3ccccc3C2)s1 [Compound 114]
≥ 40 µM	O=C(NCc1ccc2c(c1)CCO2)c1ccc(C(=O)Nc2ccc(-n3cncn3)cc2)s1 [Compound 115]
≥ 40 µM	NS(=O)(=O)c1ccc(NC(=O)c2ccc(C(=O)Nc3ccc(-n4cncn4)cc3)s2)cc1 [Compound 118]
≥ 40 µM	COc1cccc(C2CCN(C(=O)c3ccc(C(=O)Nc4ccc(-n5cncn5)cc4)s3)C2)c1 (stereo not shown) [Compound 119]
≥ 40 µM	COc1ccc(NC(=O)c2ccc(C(=O)Nc3ccc(-c4cnco4)cc3)s2)c(C)c1 [Compound 131]
≥ 40 µM	COc1ccc(NC(=O)c2ccc(C(=O)Nc3cccc(-c4cnco4)c3)s2)c(C)c1 [Compound 134]
≥ 40 µM	C[C@H](O)CNC(=O)c1ccc(C(=O)Nc2ccc(-n3cncn3)cc2)s1 [Compound 135]
≥ 40 µM	Cc1cc(NC(=O)c2ccc(C(=O)Nc3ccc(-n4cncn4)cc3)s2)ccc1F [Compound 142]
≥ 40 µM	Cn1cnc(CCNC(=O)c2ccc(C(=O)Nc3ccc(-n4cncn4)cc3)s2)c1 [Compound 143]
≥ 40 µM	O=C(Nc1ccc(-n2cncn2)cc1)c1ccc(C(=O)Nc2ccc3c(c2)OCO3)s1 [Compound 148]
≥ 40 µM	COc1ccc(NC(=O)c2ccc(C(=O)Nc3ccc(-n4cncn4)cc3)s2)cc1F [Compound 149]
≥ 40 µM	O=C(Nc1ccc(-n2cncn2)cc1)c1ccc(C(=O)N2CCCC2c2cccnc2)s1 (stereo not shown) [Compound 150]

IC50	Compound
≥ 40 µM	COc1ccc(NC(=O)c2ccc(C(=O)Nc3ccc(-n4cncn4)cc3)s2)cc1OC [Compound 151]
≥ 40 µM	O=C(NC[C@H](O)c1ccccc1)c1ccc(C(=O)Nc2ccc(-n3cncn3)cc2)s1 [Compound 154]
≥ 40 µM	Cc1cnc(NC(=O)c2ccc(C(=O)Nc3ccc(-n4cncn4)cc3)s2)s1 [Compound 155]
≥ 40 µM	O=C(NCCc1ccccn1)c1ccc(C(=O)Nc2ccc(-n3cncn3)cc2)s1 [Compound 156]
≥ 40 µM	COc1cccc(NC(=O)c2ccc(C(=O)Nc3ccc(-n4cncn4)cc3)s2)c1 [Compound 157]
≥ 40 µM	O=C(NCc1nc2ccccc2[nH]1)c1ccc(C(=O)Nc2ccc(-n3cncn3)cc2)s1 [Compound 158]
≥ 40 µM	Cn1c(NC(=O)c2ccc(C(=O)Nc3ccc(-n4cncn4)cc3)s2)nc2ccccc21 [Compound 159]
≥ 40 µM	O=C(Nc1ccc(-n2cncn2)cc1)c1ccc(C(=O)Nc2ccc3c(c2)C(=O)OC3)s1 [Compound 160]
≥ 40 µM	O=C(Nc1ccc(-n2cncn2)cc1)c1ccc(C(=O)Nc2ccc3ncsc3c2)s1 [Compound 161]
≥ 40 µM	O=C(Nc1ccc(-n2cncn2)cc1)c1ccc(C(=O)Nc2cccc(-c3cnco3)c2)s1 [Compound 162]
≥ 40 µM	O=C(Nc1ccc(-n2cncn2)cc1)c1ccc(C(=O)Nc2cccc(O)c2)s1 [Compound 163]
≥ 40 µM	Nc1ccc(CNC(=O)c2ccc(C(=O)Nc3ccc(-n4cncn4)cc3)s2)cn1 [Compound 164]
≥ 40 µM	O=C(Nc1ccc(-n2cncn2)cc1)c1ccc(C(=O)Nc2ccccc2Cl)s1 [Compound 165]
≥ 40 µM	O=C(Nc1ccc(-n2cncn2)cc1)c1ccc(C(=O)Nc2cc(F)ccc2F)s1 [Compound 166]
≥ 40 µM	COc1ccc(NC(=O)c2ccc(C(=O)Nc3ccc(-n4cncn4)cc3)s2)cc1O [Compound 167]
